Assay results taken from patent US11591311B2, “3-oxo-6-heteroaryl-2-phenyl-2,3-dihydropyridazine-4-carboxamides” (priority 2017, dated 2023).

Experiments:
AHR [1] = biological target: T1, AHR (Homo sapiens, UniProt P35869); assay: In vitro assay 1: AHR-luc transactivation assay, antagonism in human cell line (U87 glioblastoma cells prestimulated with kynurenic acid); type: cell-based
T1 construct: U87 glioblastoma cells (ATCC) endogenously expressing AHR; host or cells: U87 glioblastoma cells, stably transfected with DRE-firefly luciferase and renilla reporter constructs
T1 sequence (P35869 11-848): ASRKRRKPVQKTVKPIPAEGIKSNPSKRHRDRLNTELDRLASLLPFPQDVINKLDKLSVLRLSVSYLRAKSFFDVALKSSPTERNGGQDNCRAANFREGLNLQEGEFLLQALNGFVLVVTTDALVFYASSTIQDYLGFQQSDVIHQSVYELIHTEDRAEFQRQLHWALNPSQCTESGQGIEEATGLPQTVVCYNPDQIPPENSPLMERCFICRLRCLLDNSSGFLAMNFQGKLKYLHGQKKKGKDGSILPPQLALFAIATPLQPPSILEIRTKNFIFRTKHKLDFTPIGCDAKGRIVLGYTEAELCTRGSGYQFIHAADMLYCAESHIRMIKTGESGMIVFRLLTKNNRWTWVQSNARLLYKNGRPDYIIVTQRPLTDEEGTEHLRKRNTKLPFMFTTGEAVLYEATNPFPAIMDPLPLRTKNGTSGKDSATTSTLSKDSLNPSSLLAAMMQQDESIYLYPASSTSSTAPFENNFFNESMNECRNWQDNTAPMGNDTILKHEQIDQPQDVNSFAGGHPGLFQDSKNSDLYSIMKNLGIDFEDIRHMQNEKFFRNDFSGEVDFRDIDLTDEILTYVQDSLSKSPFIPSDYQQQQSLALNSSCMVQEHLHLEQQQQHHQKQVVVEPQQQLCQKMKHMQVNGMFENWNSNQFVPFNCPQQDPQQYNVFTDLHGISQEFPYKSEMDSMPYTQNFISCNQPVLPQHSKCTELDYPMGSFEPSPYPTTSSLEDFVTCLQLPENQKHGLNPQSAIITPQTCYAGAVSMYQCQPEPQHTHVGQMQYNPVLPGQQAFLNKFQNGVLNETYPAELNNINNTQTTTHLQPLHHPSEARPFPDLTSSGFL
Protocol: Transactivation Assay in Human Cell Line (In Vitro Assays 1 and 2)
Transactivation assays were carried out in U87 glioblastoma cells (ATCC) endogenously expressing AHR. In addition the cells were stably transfected with an AHR inducible firefly luciferase reporter gene construct that carried AHR-binding sites (DRE) in its promoter and a renilla reporter gene construct with constitutively active promoter. Kynurenic acid is an endogenous AHR activating ligand and was used to prestimulate test cells prior to testing the antagonistic properties of compounds.
In Vitro Assay 1: Antagonism in Human Cell Line
Cells in medium (tryptophan free RPMI, 1% FCS, 2 mM Glutamine) supplemented with 150 μM kynurenic acid were grown for 20 hours in absence (negative control) or presence of increasing concentrations of test compounds (typical dilutions: 72 pmol/L, 0.25 nmol/L, 0.89 nmol/L; 3.1 nmol/L, 11 nmol/L, 38 nmol/L, 130 nmol/L, 470 nmol/L, 1.6 μmol/L, 5.7 μmol/L and 20 μmol/L in duplicates). As positive inhibition control cells supplemented with 150 μM kynurenic acid were incubated in presence of 5 μM Staurosporin. Normalization was done by positive and negative controls.
Firefly luciferase and Renilla activity was determined by the DualGlo Luciferase Assay System (Promega, #2920). Renilla activity was used to assess toxic effects of compounds.

AHR [2] = biological target: T1, AHR; assay: In vitro assay 3: AHR-regulated CYP1A1 expression in human cell line (U937, qPCR); type: cell-based; settings: human monocytic U937 cells, CYP1A1 expression induced with 200 μM KA, 6 hours, quantitative PCR; read-out: Assay 3: Hum CYP1A1 Antagonism IC50
Protocol: In Vitro Assay 3: AHR-Regulated CYP1A1 Expression in Human Cell Line
To assess the AHR inhibitory activity of the substances described in this application, the ability thereof to antagonise ligand-induced AHR gene regulation in a dose-dependent manner was quantified. For this purpose, quantitative PCR analysis was used to determine expression of the AHR-regulated gene CYP1A1 in a human monocytic U937 cell line upon stimulation with 200 μM KA in the presence and absence of AHR inhibitor. […] CYP1A1 expression was induced with 200 μM KA (positive control) in the presence or absence of the substances for 6 hours. Human U937 cells were typically incubated with eight different concentrations of the substances (1 nM, 3 nM, 10 nM, 30 nM, 100 nM, 300 nM, 1 μM and 3 μM) and analyzed in duplicate on the same microtitre plate. […] Unstimulated cells were used as the negative control. Taqman probes for human CYP1A1 (Hs01054797_g1) and human HPRT (Hs02800695_m1) were used to analyze fold expression of CYP1A1 of HPRT. Quantitation was performed on a Taqman SDS7900HT.

SMILES | IC50 (AHR [1]) [nM] | IC50 (AHR [2]) [nM]
CC(C)(O)CNC(=O)c1cc(-c2ccc(C(F)(F)F)nc2)nn(-c2cccc(F)c2)c1=O [Example 10, 2-(3-Fluorophenyl)-N-(2-hydroxy-2-methylpropyl)-3-oxo-6-[6-(trifluoromethyl)pyridin-3-yl]-2,3-dihydropyridazine-4-carboxamide] | 73.2 | 110
C[C@@H](CO)NC(=O)c1cc(-c2ccc(C(F)F)nc2)nn(-c2cccc(F)c2)c1=O [Example 13, 6-[6-(Difluoromethyl)pyridin-3-yl]-2-(3-fluorophenyl)-N-[(2S)-1-hydroxypropan-2-yl]-3-oxo-2,3-dihydropyridazine-4-carboxamide] | 157 | 198
C[C@@H](CO)NC(=O)c1cc(-c2cnc(C(F)(F)F)nc2)nn(-c2cccc(F)c2)c1=O [Example 11, 2-(3-Fluorophenyl)-N-[(2S)-1-hydroxypropan-2-yl]-3-oxo-6-[2-(trifluoromethyl)pyrimidin-5-yl]-2,3-dihydropyridazine-4-carboxamide] | 495 | 326
C[C@H](NC(=O)c1cc(-c2ccc(C(F)(F)F)nc2)nn(-c2cccc(F)c2)c1=O)C(C)(C)O [Example 9, 2-(3-Fluorophenyl)-N-[(2S)-3-hydroxy-3-methylbutan-2-yl]-3-oxo-6-[6-(trifluoromethyl)pyridin-3-yl]-2,3-dihydropyridazine-4-carboxamide] | 16.2 | 25.3
C[C@@H](NC(=O)c1cc(-c2ccc(C(F)F)nc2)nn(-c2cccc(F)c2)c1=O)C(C)(C)O [Example 22, 6-[6-(Difluoromethyl)pyridin-3-yl]-2-(3-fluorophenyl)-N-[(2R)-3-hydroxy-3-methylbutan-2-yl]-3-oxo-2,3-dihydropyridazine-4-carboxamide] | 62.6 | 186
C[C@@H](CO)NC(=O)c1cc(-c2ccc(C(F)(F)F)nc2)nn(-c2cc(F)cc(F)c2)c1=O [Example 1, 2-(3,5-Difluorophenyl)-N-[(25)-1-hydroxypropan-2-yl]-3-oxo-6-[6-(trifluoromethyl)pyridin-3-yl]-2,3-dihydropyridazine-4-carboxamide] | 7.14 | 5.29
C[C@@H](NC(=O)c1cc(-c2ccc(N(C)C)nc2)nn(-c2cccc(F)c2)c1=O)C(C)(C)O [Example 19, 6-[6-(Dimethylamino)pyridin-3-yl]-2-(3-fluorophenyl)-N-[(2R)-3-hydroxy-3-methylbutan-2-yl]-3-oxo-2,3-dihydropyridazine-4-carboxamide] | 91.9 | 147
C[C@@H](CO)NC(=O)c1cc(-c2ccc(C(F)(F)F)nc2)nn(-c2cccc(Cl)c2)c1=O [Example 4, 2-(3-Chlorophenyl)-N-[(2S)-1-hydroxypropan-2-yl]-3-oxo-6-[6-(trifluoromethyl)pyridin-3-yl]-2,3-dihydropyridazine-4-carboxamide] | 128 | 222
C[C@@H](CO)NC(=O)c1cc(-c2ccc(C(F)(F)F)nc2)nn(-c2cc(F)cc(Cl)c2)c1=O [Example 2, 2-(3-Chloro-5-fluorophenyl)-N-[(2S)-1-hydroxypropan-2-yl]-3-oxo-6-[6-(trifluoromethyl)pyridin-3-yl]-2,3-dihydropyridazine-4-carboxamide] | 23.5 | 36.8
COc1ccc(-c2cc(C(=O)N[C@@H](C)CO)c(=O)n(-c3cccc(F)c3)n2)cn1 [Example 21, 2-(3-Fluorophenyl)-N-[(2S)-1-hydroxypropan-2-yl]-6-(6-methoxypyridin-3-yl)-3-oxo-2,3-dihydropyridazine-4-carboxamide] | 128 | 440
O=C(N[C@H]1CCC[C@H]1O)c1cc(-c2ccc(C(F)(F)F)nc2)nn(-c2cccc(F)c2)c1=O [Example 8, 2-(3-Fluorophenyl)-N-[(1S,2R)-2-hydroxycyclopentyl]-3-oxo-6-[6-(trifluoromethyl)pyridin-3-yl]-2,3-dihydropyridazine-4-carboxamide] | 6.28 | 10.3
